The text below walks through data of US9388419B2 (The Regents of the University of Colorado, a body corporate, priority 2009, dated 2016).

Where two headings read alike, the source gives them in different places.

The test system of test [1] is Yeast strains (S288C background). It is filed as cell-based, Saccharomyces cerevisiae. On the procedure:
The minimum inhibitory concentration (MIC) was determined aerobically in a 96 well-plate format. […] Media supplements were added according to levels reported in the Supplements Table, where specified. Overnight cultures of strains were grown in triplicate in 5 mL SD media with vitamins (Methods in Enzymology vol. 350, page 17 (2002)). A 1% (v/v) inoculum was introduced into a 5 ml culture of SD minimal media without vitamins. After the cells reached mid-exponential phase, the culture was diluted to an OD600 of 0.200. The cells were further diluted 1:5 and a 10 μL aliquot was used to inoculate each well of a 96 well plate (˜10^4 cells per well) to total volume of 100 uL. […] Plates were incubated for 72 hours at 30 C.

Test [2] concerns wild-type E. coli BW25113. Briefly: Toleragram / OD600 / doublings at 3HP 0-50 g/L, E. coli aerobic. The note with it: control E. coli, aerobic condition, FIG. 15B. In kind it is cell-based, Escherichia coli. Here is the method: (§1) Overnight cultures of wild-type E. coli BW25113 were grown in triplicate in 5 mL standard LB medium. 100 uL of overnight cultures were used to inoculate triplicate 5 mL samples of M9 minimal medium+3HP, containing 47.7 mM Na2HPO4, 22 mM KH2PO4, 8.6 mM NaCl, 18.7 mM NH4Cl, 2 mM MgSO4, 0.1 mM CaCl2, and 0.4% glucose, with 3HP concentrations ranging from 0-50 g/L. Starting OD600 ranged from 0.02-0.08. Cultures were incubated at 37 C for about 24 hours, and OD600 was recorded every 1-2 hours for the first 8 hours with a final OD600 recorded at about 24 hours. Maximum specific growth rates (μmax) were calculated by determining the optimal fit of exponential trend lines with OD data for the evaluation period. Specific changes in OD600 over approximately 24 hours (Δ24hrOD600) were calculated as the difference in t=24 hr and t=0 optical density, Δ24hrOD600=(ODt=24)−(ODt=0). Specific number of doublings (Nd) were calculated by solving for N in the equation 2^N=(ODt=24)/(ODt=0).

In test [3] the test system is wild-type E. coli BW25113. Briefly: Toleragram / OD600 / doublings at 3HP 0-50 g/L, E. coli anaerobic. The conditions noted are these: control E. coli, anaerobic conditions, 24 hours. It is filed as cell-based, Escherichia coli. Here is the method: as §1, with “Cultures were sparged with CO2 for 10 seconds, sealed, and incubated at” for “Cultures were incubated at”, “about 24 hours. OD600 was” for “about 24 hours, and OD600 was”, “1-2 hours during the first” for “1-2 hours for the first”, “24 hours. For each data point the sample was opened, sampled, re-sparged with CO2, and sealed once again. Maximum specific” for “24 hours. Maximum specific”

Test [4] concerns B. subtilis. The experiment in a line: MIC protocol B. subtilis aerobic (Common Methods, M9 media + glutamate, 24 hours). It is filed as cell-based, Bacillus subtilis. The note with it: strain BSX_0003.0 (pWH1520, control), M9 + glu + trp + 1 mM Xylose. On the procedure:
For MIC evaluations, the final results are expressed in chemical agent concentrations determined by analysis of the stock solution by HPLC (i.e., see Subsection Mb).
The minimum inhibitory concentration (MIC) was determined aerobically in a 96 well-plate format. […] Media supplements were added according to levels reported in the Supplements Table where specified. Overnight cultures of strains were grown in triplicate in 5 mL LB (with antibiotic where appropriate). A 1% (v/v) inoculum was introduced into a 5 ml culture of M9 minimal media+glutamate.

For test [5], the system named is E. coli K12. It is filed as cell-based, Escherichia coli. The note with it: E. coli K12+pSMART-LC-Kan-cynTS vs E. coli K12, M9 minimal media.
Protocol: Overnight cultures of strains were grown in 5 ml LB (with antibiotic where appropriate) at 37° C. in a shaking incubator. A 1 v/v % was used to inoculate 10 mL of M9 minimal media. After the cells reached mid-exponential phase, the culture was diluted to an OD600 of 0.200. The cells were further diluted 1:20 and a 10 ul aliquot was used to inoculate each well (˜10^4 cells per well). […] The MIC endpoint is the lowest concentration of compound at which there was no visible growth.
The subject of test [6] is Yeast strains (S288C background). It is filed as cell-based, Saccharomyces cerevisiae. Here is the method:
The minimum inhibitory concentration (MIC) was determined anaerobically in a 96 well-plate format. […] A 1% (v/v) inoculum was introduced into a 5 ml culture of SD minimal media without vitamins. After the cells reached mid-exponential phase, the culture was diluted to an OD600 of 0.200. The cells were further diluted 1:5 and a 10 μL aliquot was used to inoculate each well of a 96 well plate (˜10^4 cells per well) to total volume of 100 uL. […] Plates were incubated for 72 hours at 30 C. […] Plates were sealed in biobag anaerobic chambers that contained gas generators for anaerobic conditions and incubated for 72 hours at 30 C.
The source holds these as a separate data set.

`O=C(O)CCO` [3-HP, 3-hydroxypropionic acid]: the “% Increase Over Control” value in test [1] (S288C, SC media, no supplement, versus SD control, aerobic) was 33%; in test [1] (strain YX-022 (pyes2.1-Aro3 pRS425-ILV6) versus control, aerobic), 50%; in test [1] (strain YX-CJR-010 (pyes2.1-Thr1) versus YX-CJR-001, aerobic), 50%; in test [1] (strain YX-CJR-014 (pyes2.1-arg2) versus YX-CJR-001, aerobic), 50%; in test [1] (strain YX-CJR-017 (pyes2.1-Aro7) versus YX-CJR-001, aerobic) it was 75%; in test [6] (strain YX-CJR-005 (pYes2.1-Met6) versus YX-CJR-001, anaerobic), 50%. Besides, the “% Increase Over Control” value in test [6] (strain YX-CJR-008 (pyes2.1-ILV1) versus YX-CJR-001, anaerobic) was determined as 50%. Also, in test [2], the “3-HP concentration at which a dramatic reduction in cell density (OD600) at 24 hours starts” value is reported as no less than 30 g/L. Moreover, the “cell density response to 3-HP compared with aerobic condition” value in test [3] was “relatively sharper and earlier drop”. Also, the “Avg 24 hr ΔOD600” value in test [4] amounted to 0.00. In test [5], the “improvement in the MIC of 3-HP with cynTS plasmid” value is recorded as “over sixty percent”.
